Data as given in paper PMC9026428, “New Peptide Based Fluconazole Conjugates with Expanded Molecular Targets” (Pharmaceutics, 2022).
Like-named read-outs stand apart in the source and are kept apart here. No end group written: not given here.

Assays:
[1] = cited from earlier work
Description: Fluconazole is water-soluble, safe for patients even at a high daily dose ([…]), can be applied either intravenously or orally, and has a beneficial pharmacokinetic profile and broad spectrum of activity.

C. albicans ATCC 10231 = settings: C. albicans ATCC 10231, RPMI-1640, 200 – 0.4 μg/mL range
Description: (§1) The selective activities of the FLC-conjugates were calculated according to the following formula
(§2) (1 picture or pasted object on this page, not shown here)

C. glabrata DSM 11226 = settings: C. glabrata DSM 11226, RPMI-1640, 200 – 0.4 μg/mL range
Description: as §1, §2

C. krusei DSM 6128 = settings: C. krusei DSM 6128, RPMI-1640, 200 – 0.4 μg/mL range
Description: as §1, §2

C. tropicalis (clinical) = settings: RPMI-1640, 200 – 0.4 μg/mL range
Description: as §1, §2

## CCC(C)n1ncn(-c2ccc(N3CCN(c4ccc(OCC5COC(Cn6cncn6)(c6ccc(Cl)cc6Cl)O5)cc4)CC3)cc2)c1=O (stereo not drawn) [itraconazole]
[1]; in vivo
  incidence rate of azole-induced liver injury: 2–4%

## CC(=O)N1CCN(c2ccc(OCC3COC(Cn4ccnc4)(c4ccc(Cl)cc4Cl)O3)cc2)CC1 (stereo not drawn) [ketoconazole]
[1]
  incidence rate of azole-induced liver injury: 2–10%

## CFQWKRAMRKVR-NH2 [HLopt2-NH2]
C. albicans ATCC 10231
  MIC50: > 250 µg/mL
C. glabrata DSM 11226
  MIC50: > 250 µg/mL
  MIC90: > 250 µg/mL
C. krusei DSM 6128
  MIC50: 250 µg/mL
  MIC90: 250 µg/mL
C. tropicalis (clinical)
  MIC50: > 250 µg/mL
  MIC90: > 250 µg/mL
